Laboratory results published in patent publication US20220054535A1, “STRONTIUM BASED COMPOSITIONS AND FORMULATIONS FOR PAIN, PRURITUS, AND INFLAMMATION” (STRONTIUM NEUROGENICS INC., priority 2018, published 2022).

How the values were obtained:
IL-17 = biological target: T1, IL-17 (Homo sapiens, UniProt Q16552); assay: Preliminary investigations on the psoriasis inflammatory/keratinocyte cycle, IL-17
T1 sequence (Q16552 24-155): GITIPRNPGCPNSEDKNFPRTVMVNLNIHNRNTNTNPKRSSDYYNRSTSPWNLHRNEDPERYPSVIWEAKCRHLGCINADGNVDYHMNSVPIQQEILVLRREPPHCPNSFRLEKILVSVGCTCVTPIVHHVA
Excerpt: (§1) The present disclosure is premised on the belief that the psoriatic cycle begins with a triggering event such as trauma, infection, or stress that causes the keratinocytes to become stressed and activates dendritic cells. The dendritic cells release IL-12 and IL-23, which in turn stimulate Th17 and Th1 cells […]. Th17 releases […] which stimulates inflammation. Similarly, Th1 cells release […] which stimulates inflammation. Th1 cells also stimulate keratinocyte division leading to the formation of plaques. The activation of immune cells releases cytokines which also activates keratinocytes. The interaction between the immune system and keratinocyte activation becomes a self-feeding cycle.
(§2) Applicants' preliminary investigations indicate that strontium can break up the inflammatory/keratinocyte cycle of psoriasis, specifically by blocking the IL-17 and TNF-alpha. By targeting and blocking the two main pathways that activated dendritic cells use to trigger a psoriatic episode, strontium has immense potential as a therapeutic for psoriasis.

MMP = assay: Preliminary data in atopic dermatitis pathways, MMP activity
Excerpt: Other molecular pathways activated in atopic dermatitis include matrix metalloproteinases (MMPs). MMPs are a family of enzymes capable of breaking down extracellular matrix proteins, including connective tissues.

[1] = system: synchronous neurotransmitter release in response to TCN activation; details: strontium substitutes for calcium; cited from earlier work
TLR-4 = TLR-4 (Homo sapiens, UniProt O00206); assay: Preliminary data in atopic dermatitis pathways, TLR-4
TLR-4, sequence (O00206 24-839, species assumed): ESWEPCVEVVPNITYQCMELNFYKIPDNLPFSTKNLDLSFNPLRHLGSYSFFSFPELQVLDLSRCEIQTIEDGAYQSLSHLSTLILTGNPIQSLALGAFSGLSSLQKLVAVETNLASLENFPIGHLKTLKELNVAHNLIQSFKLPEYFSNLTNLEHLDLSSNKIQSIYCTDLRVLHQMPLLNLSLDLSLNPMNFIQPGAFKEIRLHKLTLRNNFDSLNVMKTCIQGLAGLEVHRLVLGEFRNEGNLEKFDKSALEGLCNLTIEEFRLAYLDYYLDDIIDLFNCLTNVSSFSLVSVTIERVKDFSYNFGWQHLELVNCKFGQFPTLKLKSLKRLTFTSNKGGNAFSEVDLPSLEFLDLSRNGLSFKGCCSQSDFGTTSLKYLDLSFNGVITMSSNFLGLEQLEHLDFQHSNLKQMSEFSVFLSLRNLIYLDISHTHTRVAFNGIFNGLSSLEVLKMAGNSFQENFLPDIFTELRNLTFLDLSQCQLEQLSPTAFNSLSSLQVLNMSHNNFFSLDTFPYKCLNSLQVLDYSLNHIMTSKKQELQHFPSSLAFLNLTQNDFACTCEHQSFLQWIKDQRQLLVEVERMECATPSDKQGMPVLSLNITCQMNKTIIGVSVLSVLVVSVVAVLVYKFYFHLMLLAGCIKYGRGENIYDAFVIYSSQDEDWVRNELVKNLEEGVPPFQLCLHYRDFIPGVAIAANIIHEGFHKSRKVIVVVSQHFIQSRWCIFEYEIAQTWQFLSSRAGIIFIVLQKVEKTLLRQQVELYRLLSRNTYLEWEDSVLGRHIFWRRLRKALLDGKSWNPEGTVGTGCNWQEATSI
TLR-4, sequence (Q9Y6Y9 17-160 partner limits assumed, species assumed): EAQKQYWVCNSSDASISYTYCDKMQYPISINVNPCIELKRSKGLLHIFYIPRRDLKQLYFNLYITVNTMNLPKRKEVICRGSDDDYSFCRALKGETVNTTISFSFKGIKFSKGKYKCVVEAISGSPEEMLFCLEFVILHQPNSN
Excerpt: The present disclosure is premised on the belief that people with atopic dermatitis have higher levels of Staphylococcus aureus on their skin. The higher bacterial levels trigger an immune response via the toll-like receptors, in particular toll-like receptor 4 (TLR-4). The present disclosure is also premised on the belief that continual activation of TLR-4 contributes to the chronic nature of atopic dermatitis.

CICR pathway = details: cited from earlier work
[2] = Preliminary investigations on post herpetic neuralgia pain; assay type: in vivo
TNF-alpha = TNF-alpha (Homo sapiens, UniProt P01375); assay: Preliminary investigations on the psoriasis inflammatory/keratinocyte cycle, TNF-alpha
TNF-alpha, sequence (P01375 77-233 limits assumed, species assumed): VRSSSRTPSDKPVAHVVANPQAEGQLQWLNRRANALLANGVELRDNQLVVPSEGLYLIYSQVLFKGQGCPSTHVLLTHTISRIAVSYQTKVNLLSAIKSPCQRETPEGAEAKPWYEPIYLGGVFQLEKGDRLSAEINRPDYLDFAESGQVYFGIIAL
Excerpt: as §1, §2

TCN activation = assay: Burning pain and stinging from highly acidic chemical peel (70% glycolic acid, pH 0.6); assay type: in vivo; details: strontium mixed with the acid (70% glycolic acid, pH 0.6)
Description: Nociceptors also have a CaSR that inhibits nociceptor activation when the extracellular concentration of calcium is raised above normal, or if a similar concentration of strontium is administered. […] When strontium is mixed with the acid, burning pain and stinging is suppressed by 80% or more so that any remaining sensory irritation is not bothersome.

HSV1 = assay: Preliminary investigations on HSV1 symptoms; assay type: in vivo
Excerpt: Without wishing to be bound by any one theory, it is believed that strontium's ability to block NF-Kappa B contributes to minimizing the symptoms associated with an active infection. As mentioned above, HSV 1 and 2 require the activation of NF-Kappa B for de novo virus synthesis. By blocking NF-Kappa B, strontium is essentially stopping the infection at an early stage.

In the case of `[Sr+2]` [strontium, Strontium], the “blocking of IL-17” value (IL-17) is listed as “blocking”, the MMP activity (MMP) is listed as “can block” and the “reduction of amplitude of synchronous neurotransmitter release” value [1] is listed as “more than 90%”. For the same compound, the TLR-4 activity (TLR-4) was “can block”, the “ability to induce CICR relative to calcium” value (CICR pathway) was “over a hundred-fold less active than calcium” and the “concentration reached in the ER, greater than calcium” value (CICR pathway; in the ER) was “more than 150%”. For the same compound, the “pain associated with PHN” value [2] was “can reduce or block”, the “blocking of TNF-alpha” value (TNF-alpha) was “blocking” and the “suppression of burning pain and stinging” value (TCN activation) was no less than 80%. For the same compound, the “pain, itch, and rash/blister formation associated with HSV1” value (HSV1) was “can reduce and or eliminate”.
